Test results published in article PMC3090445 (Journal of the American Chemical Society, 2008).

Key:
HDAC1 = HDAC1 (Homo sapiens, UniProt Q13547); type: biochemical
[1] = system: transformed and non-transformed human- and murine-derived cell lines; settings: transformed vs non-transformed human- and murine-derived cell lines; cited from earlier work

Chain of HDAC1 (Q13547 whole entry): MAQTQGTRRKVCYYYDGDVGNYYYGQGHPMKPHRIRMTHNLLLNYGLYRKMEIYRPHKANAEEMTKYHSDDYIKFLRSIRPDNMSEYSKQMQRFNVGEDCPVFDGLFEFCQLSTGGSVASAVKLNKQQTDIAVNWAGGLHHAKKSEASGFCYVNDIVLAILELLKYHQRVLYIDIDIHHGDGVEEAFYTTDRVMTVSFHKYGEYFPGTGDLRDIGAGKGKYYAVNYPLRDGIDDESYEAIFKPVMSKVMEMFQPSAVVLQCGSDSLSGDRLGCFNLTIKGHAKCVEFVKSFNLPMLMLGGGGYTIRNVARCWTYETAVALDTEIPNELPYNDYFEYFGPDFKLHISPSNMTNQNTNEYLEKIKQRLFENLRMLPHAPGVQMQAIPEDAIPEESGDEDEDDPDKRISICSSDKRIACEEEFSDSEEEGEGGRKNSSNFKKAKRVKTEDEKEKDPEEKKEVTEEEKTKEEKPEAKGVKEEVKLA

`C/C=C1\NC(=O)[C@H]2CSSCC/C=C/[C@H](CC(=O)N[C@H](C(C)C)C(=O)N2)OC(=O)[C@H](C(C)C)NC1=O` [FK228] showed a Ki (HDAC1) of 0.12 nM.

For `CCCCCCCC(=O)SCC/C=C/[C@@H]1CC(=O)NCc2nc(cs2)C2=N[C@@](C)(CS2)C(=O)N[C@@H](C(C)C)C(=O)O1` [largazole (1), largazole], the differential growth inhibition [1] is given as “two- to ten-fold”.
